Data reported in the supplement of paper PMC8617591.

How the values were obtained:
[1] = test system: Mycobacterium tuberculosis Erdman (autoluminescent); assay: Einf, fitted maximum growth inhibition of three-drug combination (fraction); higher = stronger maximal inhibition
Procedure: (§1)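 DiaMOND equipotent three-drug combination dose responses (10 doses, 1.5- or 2-fold spacing, centred on IC90) against autoluminescent M. tuberculosis Erdman in 8 in vitro models. Read-out is OD600, or luminescence for the intracellular and dormancy models, normalised to untreated wells. Hill-fit Einf, AUC25 and GRinf are potency metrics; FIC50 and FIC90 are total Loewe fractional inhibitory concentrations as log2 (negative = synergy).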

[2] = test system: Mycobacterium tuberculosis Erdman (autoluminescent); assay: GRinf, maximum normalised growth rate inhibition (three-drug combination) (unitless (-1 to 1)); higher = less effect (negative = killing)
Procedure: as §1

[3] = test system: Mycobacterium tuberculosis Erdman (autoluminescent); assay: total FIC50 (Loewe) at 50% inhibition, three-drug combination (log2); higher = more antagonistic
Procedure: as §1

[4] = test system: Mycobacterium tuberculosis Erdman (autoluminescent); assay: AUC25, normalised area under dose response up to IC25 (three-drug combination) (fraction (0-1)); higher = more potent at low dose
Procedure: as §1

[5] = test system: Mycobacterium tuberculosis Erdman (autoluminescent); assay: total FIC90 (Loewe) at 90% inhibition, three-drug combination (log2); higher = more antagonistic
Procedure: as §1

[6] = in vitro model: acidic pH 5.7, time point: constant (~7 days, model-specific)
[7] = in vitro model: acidic pH 5.7, time point: terminal (~4-5 doublings, model-specific)
[8] = in vitro model: butyrate, time point: constant (~7 days, model-specific)
[9] = in vitro model: butyrate, time point: terminal (~4-5 doublings, model-specific)
[10] = in vitro model: cholesterol 0.05 mM, time point: constant (~7 days, model-specific)
[11] = in vitro model: cholesterol 0.05 mM, time point: terminal (~4-5 doublings, model-specific)
[12] = in vitro model: cholesterol-high 0.2 mM, time point: constant (~7 days, model-specific)
[13] = in vitro model: cholesterol-high 0.2 mM, time point: terminal (~4-5 doublings, model-specific)
[14] = in vitro model: dormancy (butyrate + nitrate, low O2), time point: constant (~7 days, model-specific)
[15] = in vitro model: dormancy (butyrate + nitrate, low O2), time point: terminal (~4-5 doublings, model-specific)
[16] = in vitro model: intracellular J774, time point: constant = terminal
[17] = in vitro model: standard 7H9 glycerol, time point: constant = terminal
[18] = in vitro model: valerate, time point: constant (~7 days, model-specific)
[19] = in vitro model: valerate, time point: terminal (~4-5 doublings, model-specific)

COc1nc2ccc(Br)cc2cc1[C@@H](c1ccccc1)[C@@](O)(CCN(C)C)c1cccc2ccccc12 [bedaquiline] + CC(=O)NC[C@H]1CN(c2ccc(N3CCOCC3)c(F)c2)C(=O)O1 [linezolid] + NC(=O)c1cnccn1 [pyrazinamide]
Einf [1, 6]: 0.806 | Einf [1, 7]: 0.981 | Einf [1, 8]: 0.947 | Einf [1, 9]: 0.975 | Einf [1, 10]: 0.767 | Einf [1, 11]: 0.969 | Einf [1, 12]: 0.967 | Einf [1, 13]: 1 | Einf [1, 14]: 0.92 | Einf [1, 15]: 0.989 | Einf [1, 16]: 0.928 | Einf [1, 17]: 0.934 | Einf [1, 18]: 0.886 | Einf [1, 19]: 0.942 | GRinf [2, 6]: -0.494 | GRinf [2, 7]: -0.392 | GRinf [2, 8]: -0.127 | GRinf [2, 9]: -0.116 | GRinf [2, 10]: -0.355 | GRinf [2, 11]: -0.491 | GRinf [2, 12]: -0.577 | GRinf [2, 13]: -0.793 | GRinf [2, 14]: 0.268 | GRinf [2, 15]: -0.0748 | GRinf [2, 16]: -0.132 | GRinf [2, 17]: -0.00964 | GRinf [2, 18]: -0.102 | GRinf [2, 19]: -0.069 | total FIC50 [3, 6]: 0.125 | total FIC50 [3, 7]: 0.681 | total FIC50 [3, 8]: -0.0949 | total FIC50 [3, 9]: -0.166 | total FIC50 [3, 11]: 0.0813 | total FIC50 [3, 12]: 0.197 | total FIC50 [3, 13]: 0.121 | total FIC50 [3, 14]: -0.772 | total FIC50 [3, 15]: -0.0476 | total FIC50 [3, 17]: 0.406 | total FIC50 [3, 18]: 0.362 | total FIC50 [3, 19]: 0.455 | AUC25 [4, 6]: 0.076 | AUC25 [4, 7]: 0.0793 | AUC25 [4, 8]: 0.101 | AUC25 [4, 9]: 0.0821 | AUC25 [4, 10]: 0.142 | AUC25 [4, 11]: 0.141 | AUC25 [4, 12]: 0.109 | AUC25 [4, 13]: 0.105 | AUC25 [4, 14]: 0.0774 | AUC25 [4, 15]: 0.0469 | AUC25 [4, 17]: 0.0828 | AUC25 [4, 18]: 0.0833 | AUC25 [4, 19]: 0.0634 | total FIC90 [5, 7]: 0.133 | total FIC90 [5, 8]: 0.0532 | total FIC90 [5, 9]: 0.0226 | total FIC90 [5, 13]: 0.311 | total FIC90 [5, 14]: -0.755 | total FIC90 [5, 15]: -0.67 | total FIC90 [5, 16]: 0.532 | total FIC90 [5, 19]: 0.406

COc1nc2ccc(Br)cc2cc1[C@@H](c1ccccc1)[C@@](O)(CCN(C)C)c1cccc2ccccc12 [bedaquiline] + CC(=O)NC[C@H]1CN(c2ccc(N3CCOCC3)c(F)c2)C(=O)O1 [linezolid] + O=[N+]([O-])c1cn2c(n1)OC[C@@H](OCc1ccc(OC(F)(F)F)cc1)C2 [pretomanid]
Einf [1, 6]: 0.937 | Einf [1, 7]: 0.992 | Einf [1, 8]: 0.943 | Einf [1, 9]: 0.97 | Einf [1, 10]: 0.738 | Einf [1, 11]: 0.962 | Einf [1, 12]: 0.948 | Einf [1, 13]: 1 | Einf [1, 14]: 0.92 | Einf [1, 15]: 0.988 | Einf [1, 16]: 0.99 | Einf [1, 17]: 0.955 | Einf [1, 18]: 0.929 | Einf [1, 19]: 0.958 | GRinf [2, 6]: -0.508 | GRinf [2, 7]: -0.56 | GRinf [2, 8]: -0.119 | GRinf [2, 9]: -0.0976 | GRinf [2, 10]: -0.284 | GRinf [2, 11]: -0.303 | GRinf [2, 12]: -0.376 | GRinf [2, 13]: -0.834 | GRinf [2, 14]: 0.23 | GRinf [2, 15]: -0.115 | GRinf [2, 16]: -0.78 | GRinf [2, 17]: -0.108 | GRinf [2, 18]: -0.172 | GRinf [2, 19]: -0.132 | total FIC50 [3, 6]: 0.414 | total FIC50 [3, 7]: 0.58 | total FIC50 [3, 8]: 0.731 | total FIC50 [3, 9]: 0.645 | total FIC50 [3, 10]: 0.169 | total FIC50 [3, 11]: 0.274 | total FIC50 [3, 12]: 0.197 | total FIC50 [3, 13]: -0.088 | total FIC50 [3, 14]: -0.22 | total FIC50 [3, 15]: -0.261 | total FIC50 [3, 17]: 0.296 | total FIC50 [3, 18]: 0.447 | total FIC50 [3, 19]: 0.00392 | AUC25 [4, 6]: 0.118 | AUC25 [4, 7]: 0.0812 | AUC25 [4, 8]: 0.105 | AUC25 [4, 9]: 0.0754 | AUC25 [4, 10]: 0.136 | AUC25 [4, 11]: 0.141 | AUC25 [4, 12]: 0.112 | AUC25 [4, 13]: 0.115 | AUC25 [4, 14]: 0.0459 | AUC25 [4, 15]: 0.0294 | AUC25 [4, 17]: 0.0809 | AUC25 [4, 18]: 0.139 | AUC25 [4, 19]: 0.115 | total FIC90 [5, 7]: 0.474 | total FIC90 [5, 8]: 1.49 | total FIC90 [5, 9]: 0.887 | total FIC90 [5, 11]: 0.577 | total FIC90 [5, 13]: 0.591 | total FIC90 [5, 14]: -0.616 | total FIC90 [5, 15]: -1.1 | total FIC90 [5, 16]: 1.25 | total FIC90 [5, 17]: 0.191 | total FIC90 [5, 18]: 1.63 | total FIC90 [5, 19]: 1.32

COc1nc2ccc(Br)cc2cc1[C@@H](c1ccccc1)[C@@](O)(CCN(C)C)c1cccc2ccccc12 [bedaquiline] + CC(C)/N=c1\cc2n(-c3ccc(Cl)cc3)c3ccccc3nc-2cc1Nc1ccc(Cl)cc1 [clofazimine] + CC(=O)NC[C@H]1CN(c2ccc(N3CCOCC3)c(F)c2)C(=O)O1 [linezolid]
Einf [1, 6]: 0.874 | Einf [1, 7]: 0.97 | Einf [1, 8]: 0.947 | Einf [1, 9]: 0.977 | Einf [1, 10]: 0.769 | Einf [1, 11]: 0.951 | Einf [1, 12]: 0.944 | Einf [1, 13]: 0.999 | Einf [1, 14]: 0.913 | Einf [1, 15]: 0.99 | Einf [1, 16]: 0.929 | Einf [1, 17]: 0.962 | Einf [1, 18]: 0.931 | Einf [1, 19]: 0.944 | GRinf [2, 6]: -0.465 | GRinf [2, 7]: -0.331 | GRinf [2, 8]: -0.105 | GRinf [2, 9]: -0.115 | GRinf [2, 10]: -0.304 | GRinf [2, 11]: -0.374 | GRinf [2, 12]: -0.281 | GRinf [2, 13]: -0.488 | GRinf [2, 14]: 0.219 | GRinf [2, 15]: -0.161 | GRinf [2, 16]: -0.17 | GRinf [2, 17]: -0.0979 | GRinf [2, 18]: -0.127 | GRinf [2, 19]: -0.0541 | total FIC50 [3, 6]: 0.0418 | total FIC50 [3, 7]: 0.786 | total FIC50 [3, 8]: 0.0722 | total FIC50 [3, 9]: 0.112 | total FIC50 [3, 10]: -0.461 | total FIC50 [3, 11]: -0.129 | total FIC50 [3, 12]: -0.437 | total FIC50 [3, 13]: -0.195 | total FIC50 [3, 14]: -0.36 | total FIC50 [3, 15]: -0.24 | total FIC50 [3, 17]: -0.27 | total FIC50 [3, 18]: 0.0537 | total FIC50 [3, 19]: 0.263 | AUC25 [4, 6]: 0.0792 | AUC25 [4, 7]: 0.0781 | AUC25 [4, 8]: 0.0701 | AUC25 [4, 9]: 0.0486 | AUC25 [4, 10]: 0.14 | AUC25 [4, 11]: 0.137 | AUC25 [4, 12]: 0.0852 | AUC25 [4, 13]: 0.0962 | AUC25 [4, 14]: 0.0703 | AUC25 [4, 15]: 0.0497 | AUC25 [4, 17]: 0.0911 | AUC25 [4, 18]: 0.134 | AUC25 [4, 19]: 0.0869 | total FIC90 [5, 7]: 0.299 | total FIC90 [5, 8]: -0.55 | total FIC90 [5, 9]: -0.466 | total FIC90 [5, 11]: -0.783 | total FIC90 [5, 12]: -0.594 | total FIC90 [5, 13]: -0.484 | total FIC90 [5, 14]: -0.911 | total FIC90 [5, 15]: -0.848 | total FIC90 [5, 16]: 0.186 | total FIC90 [5, 17]: -0.871 | total FIC90 [5, 18]: -0.00887 | total FIC90 [5, 19]: 1.19
